Here are results for 13 compounds from patent publication US20240374612A1, “IMIDAZOBENZO[…] TREATMENT OF COGNITIVE AND MOOD SYMPTOMS” (UWM Research Foundation, Inc., priority 2021, published 2024).

“Also recorded” adds a separate entry of the source.

The test system of assay [1] is C57/Bl6 mice subjected to chronic restraint stress (working memory deficit). In words: Y-maze alternation task after chronic restraint stress (CRS). The note with it: acute, 30 min before testing, vs CRS vehicle. The assay is classed as in vivo. As for the experimental part:
Young Animals and chronic stress procedure: C57/Bl6 mice, males and females at 8 weeks old and are kept in normal housing conditions (12 h light ON cycle starting at 7 am/water and food ad libitum) for one week. During this week, animals are single housed and handled to reduce the anxiety-like response toward the experimenter. To induce a working memory deficit, mice are subjected to a chronic restraint stress protocol (CRS). They are placed in a 50 mL Falcon® tube, twice a day, for 1 hour during their diurnal cycle. The time of occurrence of the stress is randomized every day to avoid predictability. CRS is not applied on testing days. Y-maze test occurs 15 hours minimum after the last stressor.
Protocol: Mice are first habituated to the Y-maze apparatus and distal cues during 2 consecutive days over a 10 min free exploration session (one session per day). The next day, animals perform a training session consisting in seven successive trials separated by a 30 s inter-trial interval (ITI); during this training session, mice are familiarized with the experimental procedure (opening and closing of the doors and confinement into the goal arms). For each trial, mice remain in the start-box for a 30 s ITI. Then, the door is opened and the mouse is allowed to enter freely one of the two goal arms; the chosen arm is closed and the choice is recorded. After a 30 s confinement period into the chosen arm, the mouse is removed and brought back to the start-box for a second trial identical to the first one and this procedure is repeated over the series of trials.
The same general procedure used in the training session is implemented 24 h later, except that the ITI was lengthened to 90 s. For this experiment, animals are acutely injected i.p. with vehicle or drug, 30 minutes before the beginning of the test. To dissociate memory deficits from an eventual progressive loss of motivation to alternate over the series, an 8th trial is added to the series which is separated from the 7th trial by a shorter ITI (5 s). All animals failing to alternate at the 8th trial are excluded. The mean alternation rate is calculated and is expressed in percentage (number of alternation done by the animal/total number of alternation possible×100)±SEM. The percentage of alternation during the entire task is considered as an index of working memory performance (50% of being a random alternation rate). Factorial ANOVA is applied to the data to reveal differences between groups. If the ANOVA is significant for group effect (p<0.05), Scheffe post-hoc analysis are conducted to identify which groups are different from each other.
Drug preparation and administration: All drugs are diluted in a vehicle solution containing 85% H2O, 14% propylene glycol (Sigma Aldrich) and 1% Tween 80 (Sigma Aldrich). Working solutions are prepared at a concentration of 10 mg/mL and administered i.p. adjusted to the body weight of each animal. Doses used are either 1, 5, 10 or 20 mg/kg. For all Y maze experiments, animals are acutely injected i.p. with vehicle or drug, 30 minutes before the beginning of the test.

Assay [2] has as its system mice (anxiety like behaviors). Nature of the assay: Elevated plus maze (EPM). The assay is classed as in vivo. The settings on record: vs vehicle. As for the experimental part: The EPM is commonly used in preclinical rodent models to assess anxiety-like behaviors. Briefly, mice are placed in a cross-shaped maze raised at 55 cm from the floor, with 2 open arms facing each other, and 2 closed arms facing each other. During testing, mice are individually placed in the center of the maze facing an open arm and allowed to explore for 10 minutes. Throughout testing, the exploration of each mouse is recorded using a digital camera mounted on the ceiling. After 10 minutes of exploration, the camera is stopped and the mouse is removed from the maze and returned to its home cage. The videos are analyzed using Ethovision XT14 software. Specific parameters considered are: % time spent in the open arms, calculated using ([(total time spent in open arms)/(total time spent in open arms+total time spent in closed arms)]*100) and the number of open arm entries.

Setting [3] is: 3 mg/kg i.p., 30 min before testing.

For the compound `C#Cc1ccc2c(c1)C(c1ccccc1Cl)=N[C@H](C)c1c(-c3nc(CC)no3)ncn1-2` [PM-II-84E, (R)-5-(6-(2-chlorophenyl)-8-ethynyl-4-methyl-4H-benzo[f]imidazo[1,5-a][1,4]diazepin-3-yl)-3-ethyl-1,2,4-oxadiazole], the “reversal of CRS-induced reduction of alternation rate (Y-maze)” value in assay [1] (30 mg/kg i.p.) is on record as “reversed”. The “time spent in the open arms (EPM)” value in assay [2] (10 mg/kg i.p., 30 min before testing) was “significant effect; also recorded: increasing time spent in the open arms”. Moreover, in assay [2] (10 mg/kg i.p.), the “distance travelled in the open arms (EPM)” value was “trend level effect”.

On to `C#Cc1ccc2c(c1)C(c1ccccc1Cl)=N[C@H](C)c1c(-c3nc(C)no3)ncn1-2` [PM-III-57R, (R)-5-(6-(2-chlorophenyl)-8-ethynyl-4-methyl-4H-benzo[f]imidazo[1,5-a][1,4]diazepin-3-yl)-3-methyl-1,2,4-oxadiazole], for which the “reversal of CRS-induced reduction of alternation rate (Y-maze)” value in assay [1] (10 mg/kg i.p.) is “significantly reversed; also recorded: significantly improved alternation rate”.

For `C[C@H]1N=C(c2ccccc2F)c2cc(Cl)ccc2-n2cnc(-c3nc(C4CC4)no3)c21` [MYM-IV-47, (R)-5-(8-chloro-6-(2-fluorophenyl)-4-methyl-4H-benzo[f]imidazo[1,5-a][1,4]diazepin-3-yl)-3-cyclopropyl-1,2,4-oxadiazole], the results for the “reversal of CRS-induced reduction of alternation rate (Y-maze)” value in assay [1] (3 mg/kg i.p.), in assay [1] (10 mg/kg i.p.) and in assay [1] (30 mg/kg i.p.) were “no significant effect”, “significantly reversed” and “significantly reversed”, respectively.

With `C#Cc1ccc2c(c1)C(c1ccccc1Cl)=N[C@@H](C)c1c(C(=O)NC)ncn1-2` [FR-III-17, (S)-6-(2-chlorophenyl)-8-ethynyl-N,4-dimethyl-4H-benzo[f]imidazo[1,5-a][1,4]diazepine-3-carboxamide], the “reversal of CRS-induced reduction of alternation rate (Y-maze)” value in assay [1] (0.3 mg/kg i.p.), in assay [1] (1 mg/kg i.p.) and in assay [1] (3 mg/kg i.p.) was “significantly reversed” each time. Also, the “% distance traveled in the open arms (EPM)” value in assay [2] (setting [3]) is given as “significantly increase”. Further, in assay [2] (setting [3]), the “% entries in the open arms (EPM)” value is reported as “significantly increase”. In addition, in assay [2] (setting [3]), the “% time in the open arms (EPM)” value is listed as “significantly increase”.

Regarding `Cc1noc(-c2ncn3c2[C@@H](C)N=C(c2ccccc2F)c2cc(Br)ccc2-3)n1` [GL-III-60, (R)-5-(8-Bromo-6˜(2-fluorophenyl)-4-methyl-4H-benzo[f]imidazo[1,5-a][1,4]diazepin-3-yl)-3-methyl-1,2,4-oxadiazole], the “reversal of CRS-induced reduction of alternation rate (Y-maze)” value in assay [1] (10 mg/kg i.p.) and in assay [1] (30 mg/kg i.p.) was “reversed” in each case.

Consider `C#Cc1ccc2c(c1)C(c1ccccc1Cl)=N[C@@H](C)c1c(-c3nc(C)no3)ncn1-2` [FR-PM-III-57S, (S)-5-(6-(2-chlorophenyl)-8-ethynyl-4-methyl-4H-benzo[f]imidazo[1,5-a][1,4]diazepin-3-yl)-3-methyl-1,2,4-oxadiazole], for which the “reversal of CRS-induced reduction of alternation rate (Y-maze)” value in assay [1] (10 mg/kg i.p.) is “significantly reversed; also recorded: significantly improved alternation rate”; in assay [1] (30 mg/kg i.p.), “trend level effect”.

On to `CC(C)c1noc(-c2ncn3c2[C@@H](C)N=C(c2ccccc2F)c2cc(Cl)ccc2-3)n1` [MYM-IV-46, (R)-5-(8-chloro-6-(2-fluorophenyl)-4-methyl-4H-benzo[f]imidazo[1,5-a][1,4]diazepin-3-yl)-3-isopropyl-1,2,4-oxadiazole], for which the “reversal of CRS-induced reduction of alternation rate (Y-maze)” value in assay [1] (3 mg/kg i.p.) is “no significant effect”; in assay [1] (10 mg/kg i.p.), “significantly reversed; also recorded: improved alternation rate”; in assay [1] (30 mg/kg i.p.), “trend level effect”.

Regarding `C#Cc1ccc2c(c1)C(c1ccccc1F)=N[C@H](C)c1c(-c3nc(C4CC4)no3)ncn1-2` [MYM-V-28, (R)-3-cyclopropyl-5-(8-ethynyl-6-(2-fluorophenyl)-4-methyl-4H-benzo[f]imidazo [1,5-a][1,4]diazepin-3-yl)-1,2,4-oxadiazole], the “reversal of CRS-induced reduction of alternation rate (Y-maze)” value in assay [1] (10 mg/kg i.p.) and in assay [1] (30 mg/kg i.p.) was “significantly reversed; also recorded: significantly improved alternation rate” each time.

Regarding `C#Cc1ccc2c(c1)C(c1ccccc1Cl)=N[C@H](C)c1c(C(=O)N(C)C)ncn1-2` [PM-II-26, (R)-6-(2-chlorophenyl)-8-ethynyl-N,N,4-trimethyl-4H-benzo[f]imidazo[1,5-a][1,4]diazepine-3-carboxamide], the entries for the “reversal of CRS-induced reduction of alternation rate (Y-maze)” value in assay [1] (10 mg/kg i.p.) and in assay [1] (30 mg/kg i.p.) were “reversed (p<0.001)” and “a trend was observed; also recorded: reversed (trend: p=0.1)”, respectively.

In the case of `CCc1noc(-c2ncn3c2[C@@H](C)N=C(c2ccccc2F)c2cc(C4CC4)ccc2-3)n1` [GL-IV-03, (R)-5-(8-Cyclopropyl-6-(2-fluorophenyl)-4-methyl-4H-benzo[f]imidazo[1,5-a][1,4]diazepin-3-yl)-3-ethyl-1,2,4-oxadiazole], the “reversal of CRS-induced reduction of alternation rate (Y-maze)” value in assay [1] (3 mg/kg i.p.) and in assay [1] (30 mg/kg i.p.) was “reversed” in each case.

Regarding `C#Cc1ccc2c(c1)C(c1ccccn1)=N[C@@H](C)c1c(C(=O)NC)ncn1-2` [MYM-III-29, (S)-8-ethynyl-N,4-dimethyl-6-(pyridin-2-yl)-4H-benzo[f]imidazo[1,5-a][1,4]diazepine-3-carboxamide], the “reversal of CRS-induced reduction of alternation rate (Y-maze)” value in assay [1] (3 mg/kg i.p.) was “no significant difference between groups”; in assay [1] (10 mg/kg i.p.), “reversed (p<0.05)”. The “distance travelled in the open arms (EPM)” value in assay [2] (10 mg/kg i.p.) is on record as “increasing distance travelled in the open arms”.

Consider `CCc1noc(-c2ncn3c2CN=C(c2ccccc2F)c2cc(C4CC4)ccc2-3)n1` [MYM-III-43, 5-(8-cyclopropyl-6-(2-fluorophenyl)-4H-benzo[f]imidazo[1,5-a][1,4]diazepin-3-yl)-3-ethyl-1,2,4-oxadiazole], for which the “reversal of CRS-induced reduction of alternation rate (Y-maze)” value in assay [1] (3 mg/kg i.p.), in assay [1] (10 mg/kg i.p.) and in assay [1] (30 mg/kg i.p.) was “reversed” each time.

For the compound `C[C@H]1N=C(c2ccccc2F)c2cc(-c3ccccc3)ccc2-n2cnc(C(=O)N(C)C)c21` [MYM-III-41, (R)-6-(2-fluorophenyl)-N,N,4-trimethyl-8-phenyl-4H-benzo[f]imidazo[1,5-a][1,4]diazepine-3-carboxamide], the “reversal of CRS-induced reduction of alternation rate (Y-maze)” value in assay [1] (5 mg/kg i.p.) and in assay [1] (10 mg/kg i.p.) was “reversed” each time.
